Reference: paper PMC8597039, “Fluorescent Amino Acid Initiated de novo Cyclic Peptides for the Label‐Free Assessment of Cell Permeability” (Chemmedchem, 2021)
Where a SMILES comes first, the peptide text is derived from it. [ ]: non-standard residue; d: D form. Ala(azulen-1-yl) = N[C@@H](Cc1ccc2cccccc1-2)C(=O)O; Trp(4-CN) = N#Cc1cccc2[nH]cc(C[C@H](N)C(=O)O)c12

System: U2OS cells
Assay: Live cell fluorescence microscopy of peptide uptake
Conditions: 37 °C, excitation 340 nm
[1] = 50 µM peptide in OPTI-MEM, 20 min, 0.5% DMSO, washed once, ET460/50m (4CNW) or ET395/25x (AzAla) emission filter

Description: To evaluate their suitability for tracking peptide penetration into cells, 4CNW/AzAla were appended onto the N‐terminus of a well‐characterized cell penetrating peptide, TAT‐NLS P3 (tryptophan was included as a negative control). Human bone osteosarcoma epithelial cells (U2OS) were incubated with peptides 4CNW‐P3, AzAla‐P3, W‐P3 for 20 minutes at a concentration of 50 μM in OPTI‐MEM. A moderate concentration (50 μM) of peptide was required for detection due to current limitations in the sensitivity of our microscopy system. Cells were then washed once with OPTI‐MEM and imaged on a Nikon Ti Eclipse inverted microscope with fluorescence excitation at 340 nm. An ET460/50 m single bandpass emission filter was used to image 4CNW‐P3 and a ET395/25x single bandpass emission filter was used to image AzAla‐P3.
Figure 3 Uptake of 4CNW/AzAla labelled peptides by living cells. a Live cell fluorescence microscopy images of U2OS cells after 20 min incubation with linear/cyclic peptides (50 μM). Fluorescence of peptides is shown in blue (4CNW) or cyan (AzAla). Scale bar: 20 μm. Images were obtained by using fluorescence excitation at 340 nm with a ET460/50 m (4CNW) or ET395/25x (AzAla) single bandpass emission filter and a Plan Fluor 60x/A1.2 WI. b Live cell fluorescence microscopy images of U2OS cells after 24 h incubation with 4CNW‐P4 peptide (50 μM). Fluorescence of peptides is shown in blue (4CNW). Scale bar: 20 μm. Images were obtained by using fluorescence excitation at 340 nm with a ET460/50 m (4CNW) single bandpass emission filter and a Plan Fluor 40X/1.3NA objective. c Flow cytometry of U2OS cells incubated with DMSO, 4CNW‐P3 or 4CNW‐P4 at the indicated times. Fluorescence of a single cell suspension was acquired with a 355 nm laser, 450‐50 detector and FACS‐Diva software. Numbers indicated in graphs show percentage of positive cells.
To assess if 4CNW‐P4 was penetrating cells, U2OS cells were incubated with 50 μM peptide for 24 h. Cells were then imaged by fluorescence microscopy using the same conditions as described above.

Structure (SMILES)	intracellular fluorescence (cell uptake) [1]	intracellular fluorescence (cell uptake) (50 µM peptide, 24 h, ET460/50m emission filter)
CC(=O)N[C@@H](Cc1c[nH]c2cccc(C#N)c12)C(=O)NCC(=O)N[C@@H](CCCNC(=N)N)C(=O)N[C@@H](CCCCN)C(=O)N[C@@H](CCCCN)C(=O)N[C@@H](CCCNC(=N)N)C(=O)N[C@@H](CCCNC(=N)N)C(=O)N[C@@H](CCC(N)=O)C(=O)N[C@@H](CCCNC(=N)N)C(=O)N[C@@H](CCCNC(=N)N)C(=O)N[C@@H](CCCNC(=N)N)C(=O)N1CCC[C@H]1C(=O)N[C@@H](CCC(N)=O)C(=O)N1CCC[C@H]1C(=O)N[C@@H](CCCCN)C(=O)N[C@@H](CCCCN)C(=O)N[C@@H](CCCCN)C(=O)N[C@@H](CCCNC(=N)N)C(=O)N[C@@H](CCCCN)C(=O)N[C@H](C(N)=O)C(C)C [4CNW‐P3] (Ac-[Trp(4-CN)]GRKKRRQRRRPQPKKKRKV-NH2)	considerable intracellular fluorescence	–
CC[C@H](C)[C@@H]1NC(=O)[C@H](Cc2c[nH]c3ccccc23)NC(=O)[C@H](Cc2c[nH]c3cccc(C#N)c23)NC(=O)[C@H](CC(=O)O)NC(=O)CNC(=O)[C@H](CO)NC(=O)[C@H](CC(=O)O)NC(=O)[C@H](CC(=O)O)NC(=O)[C@H](CC(C)C)NC(=O)[C@H](Cc2ccc(O)cc2)NC(=O)[C@H](CC(C)C)NC(=O)[C@@H](Cc2c[nH]c3ccccc23)NC(=O)CSC[C@@H](C(=O)NCC(N)=O)NC1=O [4CNW‐P4]	–	appreciable intracellular fluorescence
CC(=O)N[C@@H](Cc1ccc2cccccc1-2)C(=O)NCC(=O)N[C@@H](CCCNC(=N)N)C(=O)N[C@@H](CCCCN)C(=O)N[C@@H](CCCCN)C(=O)N[C@@H](CCCNC(=N)N)C(=O)N[C@@H](CCCNC(=N)N)C(=O)N[C@@H](CCC(N)=O)C(=O)N[C@@H](CCCNC(=N)N)C(=O)N[C@@H](CCCNC(=N)N)C(=O)N[C@@H](CCCNC(=N)N)C(=O)N1CCC[C@H]1C(=O)N[C@@H](CCC(N)=O)C(=O)N1CCC[C@H]1C(=O)N[C@@H](CCCCN)C(=O)N[C@@H](CCCCN)C(=O)N[C@@H](CCCCN)C(=O)N[C@@H](CCCNC(=N)N)C(=O)N[C@@H](CCCCN)C(=O)N[C@H](C(N)=O)C(C)C [AzAla‐P3] (Ac-[Ala(azulen-1-yl)]GRKKRRQRRRPQPKKKRKV-NH2)	considerable intracellular fluorescence	–
